This note sets out measurements from EP3057951B1, “METHYLENE LINKED QUINOLINYL MODULATORS OF ROR-GAMMA-T” (Janssen Pharmaceutica NV, priority 2013, dated 2015).

Structures can show the parent of a compound that is named as a salt.

Assay [1] deals with T1, wild type human RORγt ligand binding domain (RORyt LBD) (Homo sapiens, UniProt P51449).
T1 construct: His-tag (N); TurboTEV protease cleavage site (ENLYFQG) (N); made in house; host or cells: E. coli (pHIS1, modified pET vector)
T1 sequence (P51449 258-518): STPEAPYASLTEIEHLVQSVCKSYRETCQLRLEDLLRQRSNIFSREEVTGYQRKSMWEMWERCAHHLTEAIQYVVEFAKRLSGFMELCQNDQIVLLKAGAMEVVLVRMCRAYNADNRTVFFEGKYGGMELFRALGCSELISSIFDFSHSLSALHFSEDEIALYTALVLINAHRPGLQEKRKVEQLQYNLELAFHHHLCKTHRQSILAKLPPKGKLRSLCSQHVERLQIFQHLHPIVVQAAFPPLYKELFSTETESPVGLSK
As to the kind of experiment: RORγt ThermoFluor assay (thermal shift, binding affinity KD). (In general: In DSF a fluorescence change marks the thermal transition of the protein.)

Assay [2] addresses T2, wild type human RORγt LBD (Homo sapiens, UniProt P51449).
T2 construct: expressed in transfected cells; host or cells: HEK293T
T2 sequence (P51449 258-518): T1 sequence (P51449 258-518)
As to the kind of experiment: RORγt (LBD) Reporter Assay (GAL4-luciferase, HEK293T cells). Format: cell-based. (In general: Reporter assays use an easily measured gene product as a stand-in for the process of interest.)

Usually Kd stands for the free concentration of one partner at which half of the binding sites on the other are occupied at equilibrium, for simple one-to-one binding. With `CC(=O)N1CC(C(O)(c2ccc3nc(C)c(Cc4ccc(C(F)(F)F)cc4)c(Cl)c3c2)c2cnnn2C)C1` (single isomer, unassigned) [Example 32c, 1-(3-((4-Chloro-2-methyl-3-(4-(trifluoromethyl)benzyl)quinolin-6-yl)(hydroxy)(1-methyl-1H-1,2,3-triazol-5-yl)methyl)azetidin-1-yl)ethanone], in assay [1], the Kd stood at 1.3 nM.
Regarding `COc1nc2ccc(C(O)(c3ccc(C)nc3C)c3cnc(C)n3C)cc2c(Cl)c1Cc1ccc(C(F)(F)F)nc1` (single isomer, unassigned) [Example 42b, (4-Chloro-2-methoxy-3-((6-(trifluoromethyl)pyridin-3-yl)methyl)quinolin-6-yl)(1,2-dimethyl-1H-imidazol-5-yl)(2,6-dimethylpyridin-3-yl)methanol], the Kd in assay [1] came out at 970 nM.
In the case of `CC(=O)N1CC(C(O)(c2ccc3nc(C)c(Cc4ccc(C(F)(F)F)cc4)c(Cl)c3c2)c2cnnn2C)C1` (single isomer, unassigned) [Example 32b, 1-(3-((4-Chloro-2-methyl-3-(4-(trifluoromethyl)benzyl)quinolin-6-yl)(hydroxy)(1-methyl-1H-1,2,3-triazol-5-yl)methyl)azetidin-1-yl)ethanone], the Kd in assay [1] came out at 0.86 nM.
For `COc1nc2ccc(C(O)(c3cnc(C)n3C)c3cnc(C)n3C)cc2c(C#N)c1Cc1ccc(C(F)(F)F)cc1` [Example 11, 6-(bis(1,2-Dimethyl-1H-imidazol-5-yl)(hydroxy)methyl)-2-methoxy-3-(4-(trifluoromethyl)benzyl)quinoline-4-carbonitrile], the Kd in assay [1] came out at 0.013 nM.
As to `COc1nc2ccc(C(O)(c3cnc(C)n3C)c3cnc(C)n3C)cc2c(Cl)c1Cc1ccc(C(F)(F)F)s1` [Example 7, (4-Chloro-2-methoxy-3-((5-(trifluoromethyl)thiophen-2-yl)methyl)quinolin-6-yl)bis(1,2-dimethyl-1H-imidazol-5-yl)methanol•TFA], the dissociation constant Kd in assay [1] is 0.032 nM.
`COc1nc2ccc(C(O)(c3cnc(C)n3C)c3cnc(C)n3C)cc2c(Cl)c1Cc1ccccc1C(F)(F)F` [Example 6, (4-Chloro-2-methoxy-3-(2-(trifluoromethyl)benzyl)quinolin-6-yl)bis(1,2-dimethyl-1H-imidazol-5-yl)methanol•TFA]: the dissociation constant (Kd) in assay [1] came to 0.046 nM.
Same read-out and setting: the result for `CCc1nc2ccc(C(O)(c3cnnn3C)C3CCOCC3)cc2c(Cl)c1Cc1ccc(C(F)(F)F)cc1` (single isomer, unassigned) [Example 33c, (4-Chloro-2-ethyl-3-(4-(trifluoromethyl)benzyl)quinolin-6-yl)(1-methyl-1H-1,2,3-triazol-5-yl)(tetrahydro-2H-pyran-4-yl)methanol] reads 0.84 nM; that for `COc1nc2ccc(C(O)(c3cnc(C)n3C)c3cnc(C)n3C)cc2c(Cl)c1Cc1ccc(C(F)(F)F)nc1` [Example 45, (4-Chloro-2-methoxy-3-((6-(trifluoromethyl)pyridin-3-yl)methyl)quinolin-6-yl)bis(1,2-dimethyl-1H-imidazol-5-yl)methanol], 0.21 nM; that for `COc1nc2ccc(C(O)(c3cnc(C)n3C)c3cnc(C)n3C)cc2c(C#N)c1Cc1cccc(C(F)(F)F)c1` [Example 9, 6-(bis(1,2-Dimethyl-1H-imidazol-5-yl)(hydroxy)methyl)-2-methoxy-3-(3-(trifluoromethyl)benzyl)quinoline-4-carbonitrile•TFA], 0.055 nM.
Same read-out and setting: under `Cc1ccc(C(O)(c2ccc3nc(C)c(Cc4ccc(C(F)(F)F)cc4)c(Cl)c3c2)c2cnnn2C)c(C)n1` (single isomer, unassigned) [Example 28c, (4-Chloro-2-methyl-3-(4-(trifluoromethyl)benzyl)quinolin-6-yl)(2,6-dimethylpyridin-3-yl)(1-methyl-1H-1,2,3-triazol-5-yl)methanol] stands 0.12 nM.
Regarding `COc1nc2ccc(C(O)(c3cnc(C)n3C)C3CCOCC3)cc2c(Cl)c1Cc1ccc(C(F)(F)F)cc1` (single isomer, unassigned) [Example 86b, (4-Chloro-2-methoxy-3-(4-(trifluoromethyl)benzyl)quinolin-6-yl)(1,2-dimethyl-1H-imidazol-5-yl)(tetrahydro-2H-pyran-4-yl)methanol], the Kd in assay [1] amounted to 27 nM.
With `CC(=O)N1CCC(C(O)(c2ccccc2)c2ccc3nc(C)c(Cc4ccc(C(F)(F)F)cc4)c(Cl)c3c2)CC1` (single isomer, unassigned) [Example 27c, 1-(4-((4-Chloro-2-methyl-3-(4-(trifluoromethyl)benzyl)quinolin-6-yl)(hydroxy)(phenyl)methyl)piperidin-1-yl)ethanone], the Kd in assay [1] is 14 nM.
Still for that read-out and setting: under `Cc1nc2ccc(C(O)(c3ccc(C(F)(F)F)nc3)c3cncn3C)cc2c(Cl)c1Cc1ccc(C(F)(F)F)cc1` (single isomer, unassigned) [Example 26c, (4-Chloro-2-methyl-3-(4-(trifluoromethyl)benzyl)quinolin-6-yl)(1-methyl-1H-imidazol-5-yl)(6-(trifluoromethyl)pyridin-3-yl)methanol] stands 0.77 nM; under `CC(=O)N1CC(C(O)(c2ccc3nc(C)c(Cc4ccc(C(F)(F)F)cc4)c(Cl)c3c2)c2cnnn2C)C1` (stereo not shown) [Example 32a, 1-(3-((4-Chloro-2-methyl-3-(4-(trifluoromethyl)benzyl)quinolin-6-yl)(hydroxy)(1-methyl-1H-1,2,3-triazol-5-yl)methyl)azetidin-1-yl)ethanone], 1.1 nM; under `CCc1nc2ccc(C(O)(c3cnnn3C)C3CN(C(C)=O)C3)cc2c(C#N)c1Cc1ccc(C(F)(F)F)cc1` (single isomer, unassigned) [Example 36, 6-((1-Acetylazetidin-3-yl)(hydroxy)(1-methyl-1H-1,2,3-triazol-5-yl)methyl)-2-ethyl-3-(4-(trifluoromethyl)benzyl)quinoline-4-carbonitrile], 0.73 nM.
As to `Cc1nc2ccc(C(O)(c3cnnn3C)c3cnc(C)n3C)cc2c(Cl)c1Cc1ccc(C(F)(F)F)cc1` (single isomer, unassigned) [Example 29c, (4-Chloro-2-methyl-3-(4-(trifluoromethyl)benzyl)quinolin-6-yl)(1,2-dimethyl-1H-imidazol-5-yl)(1-methyl-1H-1,2,3-triazol-5-yl)methanol], the Kd in assay [1] was 0.15 nM.
Consider `COc1nc2ccc(C(O)(c3cnnn3C)C3CN(C)C3)cc2c(Cl)c1Cc1ccc(C(F)(F)F)cc1` (racemic) [Example 90a, (4-Chloro-2-methoxy-3-(4-(trifluoromethyl)benzyl)quinolin-6-yl)(1-methyl-1H-1,2,3-triazol-5-yl)(1-methylazetidin-3-yl)methanol], for which the Kd in assay [1] was found to be 5 nM.
On the same count and under the same terms, the result for `Cc1nc2ccc(C(O)(c3ccc(C(F)(F)F)nc3)c3cncn3C)cc2c(Cl)c1Cc1ccc(C(F)(F)F)cc1` (single isomer, unassigned) [Example 26b, (4-Chloro-2-methyl-3-(4-(trifluoromethyl)benzyl)quinolin-6-yl)(1-methyl-1H-imidazol-5-yl)(6-(trifluoromethyl)pyridin-3-yl)methanol] reads 15 nM.
With `COc1nc2ccc(C(O)(c3cnnn3C)C3CN(C)C3)cc2c(Cl)c1Cc1ccc(C(F)(F)F)cc1` (single isomer, unassigned) [Example 90b, (4-Chloro-2-methoxy-3-(4-(trifluoromethyl)benzyl)quinolin-6-yl)(1-methyl-1H-1,2,3-triazol-5-yl)(1-methylazetidin-3-yl)methanol], the Kd in assay [1] was determined as 580 nM.
On to `COc1nc2ccc(C(O)(c3ccccn3)c3cncn3C)cc2c(Cl)c1Cc1ccc(S(C)(=O)=O)cc1` (single isomer, unassigned) [Example 58c, (4-Chloro-2-methoxy-3-(4-(methylsulfonyl)benzyl)quinolin-6-yl)(1-methyl-1H-imidazol-5-yl)(pyridin-2-yl)methanol], for which the Kd in assay [1] came out at 370 nM.
Same read-out and setting: under `COc1nc2ccc(C(O)(c3ccc(C(F)(F)F)nc3)c3cnnn3C)cc2c(Cl)c1Cc1ccc(C(F)(F)F)cc1` (single isomer, unassigned) [Example 75b, (4-Chloro-2-methoxy-3-(4-(trifluoromethyl)benzyl)quinolin-6-yl)(1-methyl-1H-1,2,3-triazol-5-yl)(6-(trifluoromethyl)pyridin-3-yl)methanol] stands 6.8 nM; under `CCc1nc2ccc(C(O)(c3cnc(C)n3C)c3cnc(C)n3C)cc2c(C#N)c1Cc1ccc(C(F)(F)F)cc1` [Example 8, 6-(bis(1,2-Dimethyl-1H-imidazol-5-yl)(hydroxy)methyl)-2-ethyl-3-(4-(trifluoromethyl)benzyl)quinoline-4-carbonitrile.TFA], 0.009 nM.
`COc1nc2ccc(C(O)(c3ccc(C(F)(F)F)nc3)c3cnnn3C)cc2c(Cl)c1Cc1ccc(C(F)(F)F)cc1` (single isomer, unassigned) [Example 75c, (4-Chloro-2-methoxy-3-(4-(trifluoromethyl)benzyl)quinolin-6-yl)(1-methyl-1H-1,2,3-triazol-5-yl)(6-(trifluoromethyl)pyridin-3-yl)methanol]: the Kd in assay [1] came out at 2.5 nM.
For the compound `COc1nc2ccc(C(O)(c3cnnn3C)c3cnc(C)n3C)cc2c(Cl)c1Cc1ccc(F)cc1` (single isomer, unassigned) [Example 65b], the inhibition at 6 µM in assay [2] (HEK-293T, read-out: RORγt (LBD) Reporter Assay, % inhibition @ 6 µM, 6 µM compound concentration) came out at 74%.
For `COc1nc2ccc(C(O)(c3cnnn3C)c3cnc(C)n3C)cc2c(Cl)c1Cc1ccc(F)cc1` (single isomer, unassigned) [Example 65c], the “RORγt (LBD) Reporter Assay, % inhibition @ 6 µM” value in assay [2] (6 µM compound concentration, 6 µM) is given as 81%.
